Key:
rat [1] = conditions: Subchronic dermal toxicity, sprague dawley, Topical, dose end: 90 day, group: systemic, systemic / pathology microscopic / skin / acanthosis + systemic / pathology microscopic / skin / edema + systemic / pathology microscopic / …
rat [2] = conditions: Sub-acute dermal toxicity, sprague dawley, Topical, dose end: 2 week, group: systemic
rat [3] = conditions: Subchronic dermal toxicity, Topical, dose end: 68 day, group: systemic
rat [4] = conditions: Prenatal developmental toxicity study; sprague dawley; Injection; Intramuscular; dose end: 14 GD; group: developmental; developmental / developmental malformation / mouth / jaw / cleft palate + developmental / developmental malformation / trunk / umbilical …
rat [5] = conditions: Prenatal developmental toxicity study, sprague dawley, Injection, Intramuscular, dose end: 13 GD
mouse [6] = conditions: Carcinogenicity, cd1, Oral, Feed, dose end: 22 month, group: systemic
rat [7] = conditions: Multigenerational reproductive toxicity study, sprague dawley, Oral, Feed, dose end: 2 generation
rat [8] = conditions: Combined chronic toxicity/carcinogenicity, sprague dawley, Oral, Feed, dose end: 104 week, group: systemic
rat [9] = conditions: Combined chronic toxicity/carcinogenicity, fischer, Oral, Feed, dose end: 103 week, group: systemic
mouse [10] = conditions: Combined chronic toxicity/carcinogenicity; b6c3f1; Oral; Feed; dose end: 103 week; group: systemic; systemic / in life observation / body weight / body weight
rabbit [11] = conditions: Prenatal developmental toxicity study; himalayan; Oral; Gavage/Intubation; dose end: 18 GD; group: maternal; systemic / in life observation / clinical signs / defecation + systemic / in life observation / clinical signs / feces, discoloration + …
rat [12] = conditions: Sub-acute repeat dose toxicity; sprague dawley; Oral; Gavage/Intubation; dose end: 4 week; group: systemic; systemic / organ weight / liver / absolute + systemic / organ weight / liver / relative to body weight
dog [13] = conditions: Sub-acute repeat dose toxicity, beagle, Oral, Gavage/Intubation, dose end: 4 week, group: systemic
dog [14] = conditions: Sub-acute repeat dose toxicity, beagle, Oral, Gavage/Intubation, dose end: 4 week, group: systemic; remark: listed apart in the source
primate = conditions: Sub-acute repeat dose toxicity, macaque, Oral, Gavage/Intubation, dose end: 4 week, group: systemic
rat [15] = conditions: Carcinogenicity, fischer, Oral, Feed, dose end: 2 year, group: systemic
mouse [16] = conditions: Carcinogenicity, b6c3f1, Oral, Feed, dose end: 2 year, group: systemic
mouse [17] = conditions: Subchronic oral toxicity in rodents, b6c3f1, Feed, dose end: 14 week, group: systemic, systemic / hematology / mean corpuscular (cell) volume (mcv) / mean corpuscular (cell) volume (mcv) + systemic / hematology / mean …
rat [18] = conditions: Subchronic oral toxicity in rodents, fischer, Feed, dose end: 14 week, group: systemic
rat [19] = conditions: Prenatal developmental toxicity study, sprague dawley, Oral, Gavage/Intubation, dose end: 18 GD
rabbit [20] = conditions: Sub-acute repeat dose toxicity, new zealand white, Oral, Gavage/Intubation, dose end: 13 day, group: systemic
rat [21] = conditions: Fertility (Segment I), Oral, Gavage/Intubation, dose end: 1 generation, group: parental
rabbit [22] = conditions: Sub-acute repeat dose toxicity, new zealand white, Oral, Gavage/Intubation, dose end: 13 day
rat [23] = conditions: Fertility (Segment I), Oral, Gavage/Intubation, dose end: 1 generation
rabbit [24] = conditions: Prenatal developmental toxicity study, new zealand white, Oral, Gavage/Intubation, dose end: 19 GD, group: maternal
[25] = systemic / in life observation / clinical signs / erythema
[26] = systemic / in life observation / clinical signs / erythema + systemic / in life observation / clinical signs / general pallor + systemic / …
[27] = systemic / in life observation / clinical signs / [other] + systemic / pathology gross / skin / thickened + systemic / pathology gross / …
[28] = group: developmental, developmental / developmental malformation / mouth / jaw / cleft palate + developmental / developmental malformation / trunk / umbilical …
[29] = group: developmental, developmental / developmental malformation / mouth / jaw / cleft palate + systemic / in life observation / body weight / fetal weight
[30] = group: maternal, reproductive / offspring survival early / dead fetuses / dead fetuses
[31] = systemic / in life observation / body weight / body weight + systemic / in life observation / body weight / body weight gain + systemic / in…
[32] = group: offspring, systemic / in life observation / body weight / offspring (pup) weight
[33] = group: parental, systemic / in life observation / body weight / body weight + systemic / in life observation / body weight / body weight gain
[34] = systemic / in life observation / body weight / body weight + systemic / in life observation / body weight / body weight gain
[35] = systemic / in life observation / body weight / body weight + systemic / in life observation / body weight / body weight gain + systemic / …
[36] = systemic / pathology microscopic / pancreas / adenoma/carcinoma combined
[37] = systemic / clinical chemistry / alkaline phosphatase (alp/alk) / alkaline phosphatase (alp/alk) + systemic / pathology microscopic / liver…
[38] = systemic / pathology microscopic / liver / pigmentation
[39] = systemic / clinical chemistry / alanine aminotransferase (alt/sgpt) / alanine aminotransferase (alt/sgpt) + systemic / clinical chemistry / …
[40] = systemic / clinical chemistry / alkaline phosphatase (alp/alk) / alkaline phosphatase (alp/alk)
[41] = systemic / clinical chemistry / bilirubin / total bilirubin + systemic / organ weight / liver / relative to body weight + systemic / …
[42] = systemic / pathology microscopic / liver / granuloma + systemic / pathology microscopic / liver / infiltration cellular + systemic / …
[43] = systemic / in life observation / body weight / body weight
[44] = systemic / in life observation / body weight / body weight + systemic / in life observation / food consumption / food consumption
[45] = systemic / in life observation / body weight / body weight + systemic / pathology microscopic / nose / pigmentation
[46] = systemic / clinical chemistry / bile acids / bile acids + systemic / in life observation / body weight / body weight + systemic / in life …
[47] = group: developmental, developmental / developmental malformation / bone / delayed ossification + developmental / developmental malformation / kidney / dilated …
[48] = group: maternal, systemic / in life observation / body weight / body weight + systemic / in life observation / clinical signs / salivation + systemic / in …
[49] = systemic / in life observation / clinical signs / tarry stools
[50] = systemic / in life observation / clinical signs / tarry stools + systemic / in life observation / body weight / body weight + systemic / in …
[51] = systemic / in life observation / body weight / body weight gain + systemic / in life observation / clinical signs / salivation
[52] = group: maternal, reproductive / reproductive performance / aborted / aborted
[53] = group: systemic, systemic / in life observation / body weight / body weight + systemic / in life observation / clinical signs / abnormal feces + systemic / …
[54] = group: systemic, systemic / in life observation / clinical signs / abnormal feces
[55] = group: maternal, reproductive / reproductive performance / estrous cycle / length
[56] = group: parental, systemic / in life observation / body weight / body weight gain + systemic / in life observation / clinical signs / salivation + systemic / …
[57] = reproductive / reproductive performance / aborted / aborted + systemic / in life observation / body weight / body weight gain + systemic / …
[58] = systemic / in life observation / clinical signs / abnormal feces

## CC1(C)COCN1 [4,4-Dimethyloxazolidine]
Rat [1]
  LEL: 30 mg/kg/day
  LOAEL: 30 mg/kg/day
  NEL: 1 mg/kg/day
  NOAEL: 1 mg/kg/day
Rat [2]; [25]
  LEL: 10 mg/kg/day
  LOAEL: 10 mg/kg/day
Rat [2]; [26]
  NEL: 1 mg/kg/day
  NOAEL: 1 mg/kg/day
Rat [3]; systemic / in life observation / clinical signs / [other]
  LEL: 19.5 mg/kg/day
Rat [3]; [27]
  LOAEL: 195 mg/kg/day
  NEL: 1.95 mg/kg/day
  NOAEL: 19.5 mg/kg/day

## CC1(C)O[C@@H]2C[C@H]3[C@@H]4CCC5=CC(=O)C=C[C@]5(C)[C@@]4(F)[C@@H](O)C[C@]3(C)[C@]2(C(=O)CO)O1 [Triamcinolone acetonide]
Rat [4]
  LEL: 0.5 mg/kg/day
  LOAEL: > 0.5 mg/kg/day
  NEL: < 0.5 mg/kg/day
  NOAEL: ≥ 0.5 mg/kg/day
Rat [5]; [28]
  LOAEL: > 5 mg/kg/day
  NOAEL: ≥ 5 mg/kg/day
Rat [5]; [29]
  LEL: 0.5 mg/kg/day
  NEL: < 0.5 mg/kg/day
Rat [5]; [30]
  LEL: 2.5 mg/kg/day
  LOAEL: > 5 mg/kg/day
  NEL: 0.5 mg/kg/day
  NOAEL: ≥ 5 mg/kg/day

## COc1nc(NC(C)C)nc(NC(C)C)n1 [Prometon]
Mouse [6]; [31]
  LOAEL: 737 mg/kg/day
  NEL: 1.7 mg/kg/day
  NOAEL: 70 mg/kg/day
Mouse [6]; systemic / pathology microscopic / spleen / depletion
  LEL: 70 mg/kg/day
Rat [7]; [32]
  LEL: 35.1 mg/kg/day
  LOAEL: 35.1 mg/kg/day
  NEL: 1.45 mg/kg/day
  NOAEL: 1.45 mg/kg/day
Rat [7]; [33]
  LEL: 35.1 mg/kg/day
  LOAEL: 35.1 mg/kg/day
  NEL: 1.45 mg/kg/day
  NOAEL: 1.45 mg/kg/day
Rat [8]; [34]
  LEL: 23.3 mg/kg/day
  LOAEL: 23.3 mg/kg/day
Rat [8]; [35]
  NEL: 0.89 mg/kg/day
  NOAEL: 0.89 mg/kg/day

## CN(C)[C@@H]1C(=O)C(C(N)=O)=C(O)[C@@]2(O)C(=O)C3=C(O)c4c(O)cccc4[C@@](C)(O)[C@H]3C[C@@H]12.Cl [Tetracycline hydrochloride]
Rat [9]; systemic / pathology microscopic / liver / clear cell focus + systemic / pathology microscopic / liver / cytoplasmic alteration
  LOAEL: 910 mg/kg/day
Rat [9]; systemic / pathology microscopic / liver / clear cell focus + systemic / pathology microscopic / liver / cytoplasmic alteration + systemic…
  NOAEL: 440 mg/kg/day
Rat [9]; [36]
  LEL: 440 mg/kg/day
  NEL: < 440 mg/kg/day
Mouse [10]
  LEL: 1500 mg/kg/day
  LOAEL: 1500 mg/kg/day
  NEL: < 1500 mg/kg/day
  NOAEL: < 1500 mg/kg/day

## CC[C@H](NC(=O)c1cc(F)ccc1[N-]S(=O)(=O)c1cccc2cccnc12)c1ccccc1.[Na+] [AVE3295]
Rabbit [11]
  LEL: 1000 mg/kg/day
  LOAEL: > 1000 mg/kg/day
  NEL: 250 mg/kg/day
  NOAEL: ≥ 1000 mg/kg/day
Rat [12]
  LEL: 2000 mg/kg/day
  LOAEL: > 2000 mg/kg/day
  NEL: 315 mg/kg/day
  NOAEL: ≥ 2000 mg/kg/day
Dog [13]; [37]
  LOAEL: 5 mg/kg/day
  NOAEL: 1 mg/kg/day
Dog [13]; [38]
  LEL: 1 mg/kg/day
  NEL: < 1 mg/kg/day
Dog [14]; [39]
  LOAEL: > 300 mg/kg/day
  NOAEL: ≥ 300 mg/kg/day
Dog [14]; [40]
  LEL: 10 mg/kg/day
  NEL: < 10 mg/kg/day
primate; [41]
  LOAEL: > 1000 mg/kg/day
  NOAEL: ≥ 1000 mg/kg/day
primate; [42]
  LEL: 60 mg/kg/day
  NEL: < 60 mg/kg/day

## O=C/C=C/c1ccccc1 [(2E)-3-Phenylprop-2-enal]
Rat [15]; [43]
  LOAEL: 200 mg/kg/day
Rat [15]; [44]
  LEL: 100 mg/kg/day
  NEL: 50 mg/kg/day
  NOAEL: 100 mg/kg/day
Mouse [16]; [43]
  LOAEL: 270 mg/kg/day
Mouse [16]; [45]
  LEL: 270 mg/kg/day
  NEL: 125 mg/kg/day
  NOAEL: 125 mg/kg/day
Mouse [17]
  LEL: 1320 mg/kg/day
  LOAEL: > 5200 mg/kg/day
  NEL: 650 mg/kg/day
  NOAEL: ≥ 5200 mg/kg/day
Rat [18]; [39]
  LOAEL: > 3100 mg/kg/day
  NOAEL: ≥ 3100 mg/kg/day
Rat [18]; [46]
  LEL: 275 mg/kg/day
  NEL: < 275 mg/kg/day

## CCOc1cccc(C2(N3CCN(c4ccccc4)CC3)CCC(C)CC2)c1.CS(=O)(=O)O (centres undefined)
Rat [19]; [47]
  LEL: 60 mg/kg/day
  LOAEL: > 125 mg/kg/day
  NOAEL: ≥ 125 mg/kg/day
Rat [19]; [48]
  LEL: 60 mg/kg/day
  LOAEL: > 125 mg/kg/day
  NEL: 12 mg/kg/day
  NOAEL: ≥ 125 mg/kg/day
Rabbit [20]; [49]
  LEL: 100 mg/kg/day
  NEL: < 100 mg/kg/day
Rabbit [20]; [50]
  LOAEL: > 1000 mg/kg/day
  NOAEL: ≥ 1000 mg/kg/day
Rat [21]; [51]
  LOAEL: > 100 mg/kg/day
  NEL: 10 mg/kg/day
  NOAEL: ≥ 100 mg/kg/day
Rat [21]; systemic / in life observation / clinical signs / salivation
  LEL: 30 mg/kg/day
Rabbit [22]; [52]
  LEL: 300 mg/kg/day
  LOAEL: > 500 mg/kg/day
  NEL: 100 mg/kg/day
  NOAEL: ≥ 500 mg/kg/day
Rabbit [22]; [53]
  LOAEL: > 500 mg/kg/day
  NOAEL: ≥ 500 mg/kg/day
Rabbit [22]; [54]
  LEL: 100 mg/kg/day
  NEL: < 100 mg/kg/day
Rat [23]; [55]
  LEL: 10 mg/kg/day
  LOAEL: > 100 mg/kg/day
  NEL: < 10 mg/kg/day
  NOAEL: ≥ 100 mg/kg/day
Rat [23]; [56]
  LEL: 30 mg/kg/day
  LOAEL: > 100 mg/kg/day
  NEL: 10 mg/kg/day
  NOAEL: ≥ 100 mg/kg/day
Rabbit [24]; [57]
  LOAEL: > 300 mg/kg/day
  NOAEL: ≥ 300 mg/kg/day
Rabbit [24]; [58]
  LEL: 15 mg/kg/day
  NEL: < 15 mg/kg/day

— EPA's ToxRefDB 2
